Measurements: patent US4064227A, “Radioimmunoassay method for the determination of cardiotonic glycosides” (Mallinckrodt, Inc., priority 1975, dated 1977)
Values joined by “and” are separate entries in the source; they are usually repeats but may differ in a detail not shown here. Identical values can stand only once.

Columns and labels:
[1] = test system: digoxin antiserum (antibody); assay: radioimmunoassay: % of I-125 hapten bound by antibody in presence of digoxin standards (standard curve); format: binding, goats; details: for Mean % bound: mean of triplicate; for % bound: single vial
Method: (§1) The relative amounts of antibody bound radioactive hapten and unbound radioactive hapten are then determined. Preferably, this is accomplished by a determination of the radioactive hapten in each vial by means of a gamma counter. The count rate of vial components following removal of the resin strip reflects the serum concentration of cardiotonic glycoside. A precount determination of radioactivity in the vial is made at the outset of the test on a gamma counter. The percent of radioactive hapten which is antibody bound is then calculated as follows: [formula] With increasing quantities of nonradioactive cardiotonic glycoside (patient or standard), the percent radioactive hapten bound by the antibody decreases. Based upon this principle, a standard curve is prepared by plotting the percent radioactive hapten bound by each of a series of standard sera versus their respective cardiotonic glycosides concentration. The patient's total circulating serum cardiotonic glycoside concentration is then readily determined by comparing the percent radioactive hapten bound in the patient's serum sample to the standard curve.
This serum is produced in goats by the monthly injection of 7.5 mg of BSA-Digoxin conjugate emulsified in complete Freunds adjuvant. The conjugate is prepared by periodate oxidation according to Butler and Chen, Biochem J. 1970. Twenty mg are dissolved in one ml of phosphate buffer solution which is added dropwise with rapid mixing through a 1.0 ml tuberculin syringe to an equal volume of complete adjuvant. The material is injected into multiple subcutaneous sites.
The final dilutions are such that they insure binding eq 60 ± 5% of 3-0-succinyl digoxigenin-L-tyrosine* and displacement by non-radioactive digoxin.
A. Reaction vials: To 99 parts phosphate buffer solution add 1 part of reagent alcohol containing 7-100 nCi/10 ul of 3-0-succinyl digoxigenin tyrosine. Mix mechanically for 1 minute and transfer to an automatic pipette or dispensing device. 1 ml of the above prepared combination reagent is transferred to each reaction vial and the vials are stored at -20° C. (or lower).
C. Digoxin, antiserum diluted as described above to contain the dilution of antibody binding 60% of a 7-100 nc quantity of 3-0-succinyl digoxigenin tyrosine 125-I.
(§2) The following procedure is employed in carrying out the radioimmumoassay method of the invention to prepare a standard curve.
(§3) 1. The required number of reaction vials is removed from the freezer and the net precount per minute is determined for each vial during or after thawing. The thawed reaction vials are gently agitated. Preferably, the test is carried out in triplicate.
(§4) 2. 50 microliters each of the 0, 0.4, 1.0, 2.0, 3.0 and 5.0 ng/ml standard is added to 18 reaction vials.
(§5) 3. 50 microliters of antiserum is added to each of the reaction vials and the caps replaced.
(§6) 4. The vial contents are mixed by rotating for one minute on a rotator at 12-14 rpm or by gently agitating the vial rack.
(§7) 5. The reaction vials are incubated at room temperature for 30 minutes ± 5 minutes.
(§8) 6. One ion-exchange resin strip is inserted in each reaction vial and the caps replaced.
(§9) 7. The reaction vials are rotated for 30 minutes at ambient temperature (20° C. to 30° C.) on a rotator which produces end-over-end mixing at 12-14 rpm.
(§10) 8. The resin strips are carefully removed and discarded. The resin strips should be allowed to drain over the vials by touching the strip lightly on top of the vial prior to replacing the vial caps.
(§11) 9. The net postcount per minute is determined for each reaction vial.
(§12) 10. The % I-125 bound is calculated by dividing the net CPM postcount by the net CPM precount and multiplying by 100. [formula]
11. The values obtained should range from 60 + 5% at the 0 ng/ml concentration of digoxin/ml of serum to 20 ± 5% at 10 ng/ml.
The above procedure was followed for 3-succinyl-digoxigenin-L-tyrosin, 3-adipyl-digoxigenin-L-tryosine and 3-carbodigoxigenin-glycyl-L-tyrosine. […]

[2] = test system: antiserum containing antibody; assay: radioimmunoassay: % of I-125 hapten bound by antibody in presence of digitoxin standards (standard curve); format: binding; details: for Mean % bound: mean of triplicate; for % bound: single vial
Method: as §1
These are produced by drying U.S.P. Reference Digitoxin at 100° C. for 2 hours in a vacuum desiccator. 50 mg is quantitatively transferred to a 100 ml volumetric flask and brought to that volume with methyl alcohol at 25° C. After mixing, 1 ml is transferred to another 100 ml volumetric flask and diluted to 10 ml with methyl alcohol. This 10 ml is diluted to 100 ml with distilled water. 1 ml is transferred to a 50 ml volumetric flask and diluted to 50 ml with digitoxin free normal human serum containing 0.1% NaN3. The product contains 100 ng/ml of digitoxin. This is diluted with normal human serum containing to 0.1% NaN3 to form a […] standard.
as §2, §3, §4, §5, §6, §7, §8, §9, §10, §11, §12
Essentially the same procedure was followed for 3-succinyl-digitoxigenin-L-tyrosine except 25 microliters of each digitoxin standard was used.

[3] = digitoxin standard 0.0 ng/ml, 25 microliters
[4] = digitoxin standard 4.0 ng/ml, 25 microliters
[5] = digitoxin standard 10.0 ng/ml, 25 microliters
[6] = digitoxin standard 20.0 ng/ml, 25 microliters
[7] = digitoxin standard 30.0 ng/ml, 25 microliters
[8] = digitoxin standard 50.0 ng/ml, 25 microliters
[9] = digitoxin standard 100.0 ng/ml, 25 microliters

Q: With C[C@]12CC[C@H](OC(=O)CCC(=O)N[C@@H](Cc3ccc(O)cc3)C(=O)O)C[C@H]1CC[C@@H]1[C@@H]2C[C@@H](O)[C@]2(C)[C@@H](C3=CC(=O)OC3)CC[C@]12O [3-succinyl-digoxigenin-L-tyrosine] as the compound, how does the Mean % bound ([1]; control, no antibody) read?
A: 5.5%

Q: And the “% bound” value ([1]; control, no antibody)?
A: 5.7% and 6.0% and 4.7%

Q: And the Mean % bound ([1]; digoxin standard 0 ng/ml)?
A: 66.8%

Q: And the “% bound” value ([1]; digoxin standard 0 ng/ml)?
A: 67.2% and 65.4% and 67.7%

Q: And the Mean % bound ([1]; digoxin standard 1.0 ng/ml)?
A: 49.0%

Q: What about the “% bound” value ([1]; digoxin standard 1.0 ng/ml) of the same compound?
A: 48.6% and 49.8%

Q: And the Mean % bound ([1]; digoxin standard 2.0 ng/ml)?
A: 35.5%

Q: And the “% bound” value ([1]; digoxin standard 2.0 ng/ml)?
A: 35.0% and 34.6% and 36.9%

Q: And the Mean % bound ([1]; digoxin standard 3.0 ng/ml)?
A: 27.2%

Q: What about the “% bound” value ([1]; digoxin standard 3.0 ng/ml) of the same compound?
A: 27.4% and 26.7% and 27.5%

Q: And the Mean % bound ([1]; digoxin standard 5.0 ng/ml)?
A: 19.6%

Q: What about the “% bound” value ([1]; digoxin standard 5.0 ng/ml) of the same compound?
A: 19.9% and 19.3% and 19.6%

Q: What about the Mean % bound ([1]; digoxin standard .4 ng/ml) of the same compound?
A: 58.5%

Q: What about the “% bound” value ([1]; digoxin standard .4 ng/ml) of the same compound?
A: 59.3% and 57.2% and 59.0%

Q: For C[C@]12CC[C@H](OC(=O)CCCCC(=O)N[C@@H](Cc3ccc(O)cc3)C(=O)O)C[C@H]1CC[C@@H]1[C@@H]2C[C@@H](O)[C@]2(C)[C@@H](C3=CC(=O)OC3)CC[C@]12O [3-adipyl-digoxigenin-L-tyrosine], which Mean % bound ([1]; control, no antibody) is on record?
A: 3.9%

Q: What about the “% bound” value ([1]; control, no antibody) of the same compound?
A: 4.0% and 3.6%

Q: What about the Mean % bound ([1]; digoxin standard 0 ng/ml) of the same compound?
A: 65.2%

Q: What about the “% bound” value ([1]; digoxin standard 0 ng/ml) of the same compound?
A: 66.4% and 64.8% and 64.3%

Q: What about the Mean % bound ([1]; digoxin standard 1.0 ng/ml) of the same compound?
A: 46.8%

Q: What about the “% bound” value ([1]; digoxin standard 1.0 ng/ml) of the same compound?
A: 46.1% and 47.0% and 47.3%

Q: What about the Mean % bound ([1]; digoxin standard 2.0 ng/ml) of the same compound?
A: 33.4%

Q: And the “% bound” value ([1]; digoxin standard 2.0 ng/ml)?
A: 34.8% and 32.2% and 33.3%

Q: What about the Mean % bound ([1]; digoxin standard 3.0 ng/ml) of the same compound?
A: 25.4%

Q: What about the “% bound” value ([1]; digoxin standard 3.0 ng/ml) of the same compound?
A: 26.1% and 25.1% and 25.0%

Q: What about the Mean % bound ([1]; digoxin standard 5.0 ng/ml) of the same compound?
A: 17.2%

Q: What about the “% bound” value ([1]; digoxin standard 5.0 ng/ml) of the same compound?
A: 16.9% and 16.5% and 18.0%

Q: What about the Mean % bound ([1]; digoxin standard .4 ng/ml) of the same compound?
A: 57.5%

Q: And the “% bound” value ([1]; digoxin standard .4 ng/ml)?
A: 57.8% and 57.4% and 57.2%

Q: Which Mean % bound ([2]; control, no antibody) does the source give for C[C@]12CC[C@H](OC(=O)CCC(=O)N[C@@H](Cc3ccc(O)cc3)C(=O)O)C[C@H]1CC[C@@H]1[C@@H]2CC[C@]2(C)[C@@H](C3=CC(=O)OC3)CC[C@]12O [3-succinyl digitoxigenin-L-tyrosine] here?
A: 18.8%

Q: And the “% bound” value ([2]; control, no antibody)?
A: 18.0% and 18.9% and 19.4%

Q: What about the Mean % bound [2, 3] of the same compound?
A: 70.2%

Q: And the “% bound” value [2, 3]?
A: 70.8% and 70.7% and 69.0%

Q: And the Mean % bound [2, 4]?
A: 67.3%

Q: And the “% bound” value [2, 4]?
A: 67.3% and 67.6% and 66.9%

Q: What about the Mean % bound [2, 5] of the same compound?
A: 59.9%

Q: And the “% bound” value [2, 5]?
A: 59.9% and 60.2% and 59.5%

Q: What about the Mean % bound [2, 6] of the same compound?
A: 46.8%

Q: What about the “% bound” value [2, 6] of the same compound?
A: 45.8% and 47.3% and 47.2%

Q: What about the Mean % bound [2, 7] of the same compound?
A: 35.6%

Q: And the “% bound” value [2, 7]?
A: 33.9% and 36.7% and 36.2%

Q: And the Mean % bound [2, 8]?
A: 27.7%

Q: What about the “% bound” value [2, 8] of the same compound?
A: 26.5% and 29.4% and 27.1%

Q: What about the Mean % bound [2, 9] of the same compound?
A: 22.9%

Q: What about the “% bound” value [2, 9] of the same compound?
A: 22.2% and 22.5% and 24.0%

Q: C[C@]12CC[C@H](OC(=O)NCC(=O)N[C@@H](Cc3ccc(O)cc3)C(=O)O)C[C@H]1CC[C@@H]1[C@@H]2C[C@@H](O)[C@]2(C)[C@@H](C3=CC(=O)OC3)CC[C@]12O [3-carbodigoxigenin-glycyl-L-tyrosine] was tested. Which Mean % bound ([1]; control, no antibody) did it give?
A: 5.2%

Q: And the “% bound” value ([1]; control, no antibody)?
A: 5.5% and 5.4% and 4.8%

Q: And the Mean % bound ([1]; digoxin standard 0 ng/ml)?
A: 56.6%

Q: What about the “% bound” value ([1]; digoxin standard 0 ng/ml) of the same compound?
A: 57.0% and 55.8% and 56.9%

Q: What about the Mean % bound ([1]; digoxin standard 1.0 ng/ml) of the same compound?
A: 41.3%

Q: And the “% bound” value ([1]; digoxin standard 1.0 ng/ml)?
A: 39.4% and 41.7% and 42.9%

Q: What about the Mean % bound ([1]; digoxin standard 2.0 ng/ml) of the same compound?
A: 31.6%

Q: And the “% bound” value ([1]; digoxin standard 2.0 ng/ml)?
A: 31.5% and 31.7% and 31.4%

Q: What about the Mean % bound ([1]; digoxin standard 3.0 ng/ml) of the same compound?
A: 25.3%

Q: What about the “% bound” value ([1]; digoxin standard 3.0 ng/ml) of the same compound?
A: 25.5% and 23.3% and 26.9%

Q: What about the Mean % bound ([1]; digoxin standard 5.0 ng/ml) of the same compound?
A: 17.9%

Q: And the “% bound” value ([1]; digoxin standard 5.0 ng/ml)?
A: 18.3% and 18.2% and 17.1%

Q: What about the Mean % bound ([1]; digoxin standard .4 ng/ml) of the same compound?
A: 51.3%

Q: What about the “% bound” value ([1]; digoxin standard .4 ng/ml) of the same compound?
A: 50.8% and 51.4% and 51.8%
